From ChEMBL document CHEMBL1154338, “Synthesis of modified homo-N-nucleosides from the reactions of mesityl nitrile oxide with 9-allylpurines and their influence on lipid peroxidation and thrombin inhibition” (Bioorg Med Chem Lett, 2009)

Tests used:
[1] = system: Radical scavenging activity; assay: Antioxidant activity assessed as DPPH free radical scavenging activity at 0.1 mM after 20 mins; assay type: functional
[2] = system: Radical scavenging activity; assay: Antioxidant activity assessed as DPPH free radical scavenging activity at 0.1 mM after 60 mins; assay type: functional
[3] = Antioxidant activity assessed as inhibition of lipid peroxidation at 100 uM; assay type: functional; design: scale not given: the % may be the effect or the level left
[4] = Antioxidant activity assessed as inhibition of xanthine-xanthine oxidase generated superoxide anion radical production at 100 uM by nitroblue tetrazolium method; assay type: functional; design: scale not given: the % may be the effect or the level left
[5] = Inhibition of soybean lipoxygenase; design: species or system Glycine max
[6] = system: Radical scavenging activity; assay: Antioxidant activity assessed as DPPH free radical scavenging activity at 0.05 mM after 20 mins; assay type: functional
[7] = system: Radical scavenging activity; assay: Antioxidant activity assessed as DPPH free radical scavenging activity at 0.05 mM after 60 mins; assay type: functional

| Structure (SMILES) | Activity [1] [%] | Activity [2] [%] | Activity [3] [%] | Activity [4] [%] | IC50 [5] [µM] | Activity [6] [%] | Activity [7] [%] |
| --- | --- | --- | --- | --- | --- | --- | --- |
| Cc1cc(C)c(C2=NOC(Cn3cnc4c(N5CCOCC5)ncnc43)C2)c(C)c1 (stereo not given) | 4 | 4 | 81 | 1 | 100 |  |  |
| Cc1cc(C)c(C2=NOC(Cn3cnc4c(N5CCCC5)ncnc43)C2)c(C)c1 (stereo not given) |  |  | 52 |  | 100 | 11 | 11 |
| Cc1c(C)c2c(c(C)c1O)CCC(C)(C(=O)O)O2 (stereo not given) |  |  | 73 |  |  |  |  |
| O=C(O)/C=C/c1ccc(O)c(O)c1 |  |  |  | 10 |  |  |  |
| CC(Cc1ccc(O)c(O)c1)C(C)Cc1ccc(O)c(O)c1 (stereo not given) | 81 | 83 |  |  |  | 68 | 72 |
